Data published in patent US20080058330A1, “Compounds and Combinations Thereof for Inhibiting Beta-Amyloid Production and Methods of Use Thereof” (Roskamp Research LLC, priority 2006, published 2008).

Assays:
7W WT APP751 CHO cells [1] = assay: Screening of dihydropyridine compounds of Table 2, Aβ1-40 and Aβ1-42 ELISA (Example 5); assay type: cell-based, Chinese hamster; conditions: for concentration of Aβ1-40 or Aβ1-42 compared to control: 3, 10, 30 and 100 μM, 24 hours (FIGS. 22A, 22B, 23A, 23B); for concentration of Aβ1-40 compared to control: 3 and 10 μM, 24 hours (FIG. 24)
Procedure: (§1) Chinese hamster ovary (CHO) cells, stably transfected with human APP751 (7W WT APP751 CHO cells) were used. See, e.g., Koo and Squazzo, J. Biol. Chem., Vol. 269, Issue 26, 17386-17389, July, 1994. The cells were maintained in DMEM medium supplemented with 10% fetal bovine serum and IX mixture of penicillin/streptomycin/fungizone/glutamine mixture (Cambrex, Md.) geneticin as selecting agent in 75 cm^2 cell culture flasks.
(§2) The 7W WT APP751 CHO cells were plated in 24-well cell culture plates in quadruplicate, containing 1 ml of culture medium, and treated with various calcium channel blocker compounds for 4 hours, 24 hours or 48 hours at 37° C. and 5% CO2. All test compounds were diluted in dimethyl sulfoxide (DMSO) before being added to the cultured confluent 7W WT APP751 CHO cells. The culture medium was collected and diluted 5-fold for the 4 hours assay and 50-fold for the 24 hour assay before being assayed by ELISAs for Aβ1-40 and Aβ1-42, respectively. Concentrations of Aβ1-40 and Aβ1-42, expressed in pg/ml, were determined using commercially available ELISAs (Biosource, Calif.) in a colorimetric assay using labeled antibodies detected spectrophotometrically.
The screening of dihydropyridine compounds was conducted according to the procedure described in Example 1. Each compound was added to confluent cells to a final concentration of 3, 10, 30 or 100 μM and tested. Each of these compounds was added to confluent cells to a final concentration of 3 μM (noted as “C” in FIG. 24) or 10 μM (noted as “B” in FIG. 24).

7W WT APP751 CHO cells [2] = assay: Measurement of Aβ1-40 and Aβ1-42 by ELISA after treatment with calcium channel blockers (Example 1); assay type: cell-based, Chinese hamster
Procedure: as §1
as §2, with “All test compounds were diluted in dimethyl sulfoxide (DMSO) before being added to the cultured confluent 7W WT APP751 CHO cells.” left out

Tg APPsw mice = Tg APPsw mice given the NSAID; correlating with decreased microglial activation; cited from earlier work
[3] = 30 μM, cells plated at low density, 24 hours (FIG. 1C)
[4] = 30 μM, cells plated at low density, 48 hours (FIG. 1D)

## COCCOC(=O)C1=C(C)NC(C)=C(C(=O)OCCOC)C1c1ccccc1Cl [Example 2-19]
7W WT APP751 CHO cells [1]
  concentration of Aβ1-40 or Aβ1-42 compared to control: decreased

## CCOC(=O)C1=C(C)NC(C)=C(C(=O)OCC)C1c1ccccc1Br [Example 2-23, Diethyl 4-(2-bromophenyl)-1,4-dihydro-2,6-dimethylpyridine-3,5-dicarboxylate]
7W WT APP751 CHO cells [1]
  concentration of Aβ1-40 or Aβ1-42 compared to control: decreased

## CCOC(=O)C1=C(C)NC(C)=C(C(=O)OCC)C1c1ccccc1F [Example 2-27, Diethyl 4-(2-fluorophenyl)-1,4-dihydro-2,6-dimethylpyridine-3,5-dicarboxylate]
other
  melting point: 151 to 152.5 °C
7W WT APP751 CHO cells [1]
  concentration of Aβ1-40 or Aβ1-42 compared to control: decreased

## CC1=C(C(=O)OC(C)(C)C)C(c2ccccc2F)C(C(=O)OC(C)(C)C)=C(C)N1 [Example 2-28, Di-tert-butyl 4-(2-fluorophenyl)-1,4-dihydro-2,6-dimethylpyridine-3,5-dicarboxylate]
7W WT APP751 CHO cells [1]
  concentration of Aβ1-40 or Aβ1-42 compared to control: decreased

## CCOC(=O)C1=C(C)NC(C)=C(C(=O)OCC)C1c1ccccc1[N+](=O)[O-] [Example 2-29, Diethyl 1,4-dihydro-2,6-dimethyl-4-(2-nitrophenyl)pyridine-3,5-dicarboxylate]
7W WT APP751 CHO cells [1]
  concentration of Aβ1-40 or Aβ1-42 compared to control: decreased

## CC1=C(C(=O)OC(C)(C)C)C(c2ccccc2Br)C(C(=O)OC(C)(C)C)=C(C)N1 [Example 2-32, Di-tert-butyl 4-(2-bromophenyl)-1,4-dihydro-2,6-dimethylpyridine-3,5-dicarboxylate]
7W WT APP751 CHO cells [1]
  concentration of Aβ1-40 or Aβ1-42 compared to control: decreased

## CC1=C(C(=O)OC(C)(C)C)C(c2ccccc2[N+](=O)[O-])C(C(=O)OC(C)(C)C)=C(C)N1 [Example 2-33, Di-tert-butyl 1,4-dihydro-2,6-dimethyl-4-(2-nitrophenyl)pyridine-3,5-dicarboxylate]
7W WT APP751 CHO cells [1]
  concentration of Aβ1-40 or Aβ1-42 compared to control: decreased

## CCOC(=O)C1=C(C)NC(C)=C(C(=O)OCC)C1c1cccc(F)c1F [Example 3-22]
7W WT APP751 CHO cells [1]
  concentration of Aβ1-40 compared to control: decreased

## CC1=C(C(=O)OC(C)(C)C)C(c2cccc(F)c2F)C(C(=O)OC(C)(C)C)=C(C)N1 [Example 3-23]
7W WT APP751 CHO cells [1]
  concentration of Aβ1-40 compared to control: decreased

## CCOC(=O)C1=C(C)NC(C)=C(C(=O)OCC)C1c1ccc(Br)cc1F [Example 3-33]
7W WT APP751 CHO cells [1]
  concentration of Aβ1-40 compared to control: decreased

## CC1=C(C(=O)OC(C)(C)C)C(c2ccc(Br)cc2F)C(C(=O)OC(C)(C)C)=C(C)N1 [Example 3-34, Di-tert-butyl 4-(4-bromo-2-fluorophenyl)-1,4-dihydro-2,6-dimethylpyridine-3,5-dicarboxylate]
7W WT APP751 CHO cells [1]
  concentration of Aβ1-40 compared to control: decreased

## COCCOC(=O)C1=C(C)NC(C)=C(C(=O)OCCOC)C1c1cccc(Br)c1 [Example 3-37]
7W WT APP751 CHO cells [1]
  concentration of Aβ1-40 compared to control: decreased

## COCCOC(=O)C1=C(C)NC(C)=C(C(=O)OCCOC)C1c1ccc(Br)cc1 [Example 3-38, Bis(2-methoxyethyl) 4-(4-bromophenyl)-1,4-dihydro-2,6-dimethylpyridine-3,5-dicarboxylate]
7W WT APP751 CHO cells [1]
  concentration of Aβ1-40 compared to control: decreased

## CCOC(=O)C1=C(C)NC(C)=C(C(=O)OCC)C1c1cc(Br)ccc1F [Example 3-41, Diethyl 4-(5-bromo-2-fluorophenyl)-1,4-dihydro-2,6-dimethylpyridine-3,5-dicarboxylate]
7W WT APP751 CHO cells [1]
  concentration of Aβ1-40 compared to control: decreased

## CC1=C(C(=O)OC(C)(C)C)C(c2cc(Br)ccc2F)C(C(=O)OC(C)(C)C)=C(C)N1 [Example 3-42]
7W WT APP751 CHO cells [1]
  concentration of Aβ1-40 compared to control: decreased

## COC(=O)C1=C(C)NC(C)=C(C(C)=O)C1c1ccccc1Br (stereo not shown) [Example 59, Methyl 5-acetyl-4-(2-bromophenyl)-1,4-dihydro-2,6-dimethylpyridine-3-carboxylate]
other
  melting point: 146 to 148 °C

## Clc1ccc(C(c2ccc(Cl)cc2)[n+]2ccn(CC(OCc3ccc(Cl)cc3Cl)c3ccc(Cl)cc3Cl)c2)cc1.[Cl-] (stereo not shown) [Example R24571, 1-[bis(p-chlorophenyl)methyl]-3-[2-(2,4-di-chloro-p-(2,4-dichlorobenzyl-oxy)phenethyl)]-imidazolium chloride]
7W WT APP751 CHO cells [2]; 5 μM (FIG. 4)
  concentration of Aβ1-40 compared to controls: significantly decreased
  concentration of total β-amyloid compared to controls: significantly decreased

## C#CCN1C(C)=C(C(=O)OC)C(c2cccc([N+](=O)[O-])c2)C(C(=O)OCC)=C1C (stereo not shown) [MRS 1845, N-propargylnitrendipine]
7W WT APP751 CHO cells [2]; 30 μM (FIG. 3)
  concentration of Aβ1-40 compared to controls: significantly decreased
  concentration of total β-amyloid compared to controls: significantly decreased

## COc1ccc(CCCOC(Cn2ccnc2)c2ccc(OC)cc2)cc1.Cl (stereo not drawn) [SKF 96365, 1-[beta-[3-(4-methoxyphenyl)propoxy]-4-methoxyphenethyl]-1H-imidazole hydrochloride]
7W WT APP751 CHO cells [2]; 15 μM, 24 hours (FIG. 1B)
  concentration of Aβ1-40 compared to controls: significantly decreased
7W WT APP751 CHO cells [2]; 30 μM (FIG. 2)
  concentration of Aβ1-40 compared to controls: significantly decreased
  concentration of Aβ1-42 compared to controls: significantly decreased
  concentration of total β-amyloid compared to controls: significantly decreased
7W WT APP751 CHO cells [2]; 30 μM, 24 hours (FIG. 1B)
  concentration of Aβ1-40 compared to controls: significantly decreased

## Clc1ccccc1C(c1ccccc1)(c1ccccc1)n1ccnc1 [clotrimazole]
7W WT APP751 CHO cells [2]; 20 μM (FIG. 4)
  concentration of Aβ1-40 compared to controls: significantly decreased
  concentration of total β-amyloid compared to controls: significantly decreased

## CC(C)Cc1ccc(C(C)C(=O)O)cc1 (stereo not shown) [ibuprofen]
Tg APPsw mice
  β-amyloid deposits, astrocytosis, and dystrophic neurites: reduction

## CN(C)C(=O)C(CCN1CCC(O)(c2ccc(Cl)cc2)CC1)(c1ccccc1)c1ccccc1 [loperamide]
7W WT APP751 CHO cells [2]; 30 μM (FIG. 4)
  concentration of Aβ1-40 compared to controls: significantly decreased
  concentration of Aβ1-42 compared to controls: significantly decreased
  concentration of total β-amyloid compared to controls: significantly decreased

## COC(=O)C1=C(C#N)NC(C)=C(C(=O)OC(C)C)C1c1cccc([N+](=O)[O-])c1 (stereo not shown) [nilvadipine]
7W WT APP751 CHO cells [2]; 30 μM (FIG. 3)
  concentration of Aβ1-40 compared to controls: significantly decreased
  concentration of total β-amyloid compared to controls: significantly decreased
7W WT APP751 CHO cells [2]; 30 μM, 24 hours (FIG. 1B)
  concentration of Aβ1-40 compared to controls: significantly decreased
7W WT APP751 CHO cells [2]; [3]
  concentration of Aβ1-40 compared to controls: significantly decreased
7W WT APP751 CHO cells [2]; [4]
  concentration of Aβ1-40 compared to controls: significantly decreased

## CCOC(=O)C1=C(C)NC(C)=C(C(=O)OC)C1c1cccc([N+](=O)[O-])c1 (stereo not shown) [nitrendipine]
7W WT APP751 CHO cells [2]; 30 μM (FIG. 3)
  concentration of Aβ1-40 compared to controls: significantly decreased
  concentration of total β-amyloid compared to controls: significantly decreased
7W WT APP751 CHO cells [2]; [3]
  concentration of Aβ1-40 compared to controls: significantly decreased
7W WT APP751 CHO cells [2]; [4]
  concentration of Aβ1-40 compared to controls: significantly decreased

## COc1ccc2cc1Oc1ccc(cc1)C[C@H]1c3cc(c(OC)cc3CCN1C)Oc1c(OC)c(OC)cc3c1[C@H](C2)N(C)CC3 [tetrandine, tetrandrine]
7W WT APP751 CHO cells [2]; 5 μM (FIG. 4)
  concentration of Aβ1-40 compared to controls: significantly decreased
  concentration of total β-amyloid compared to controls: significantly decreased
7W WT APP751 CHO cells [2]; 10 μM (FIG. 4)
  concentration of Aβ1-40 compared to controls: significantly decreased
  concentration of total β-amyloid compared to controls: significantly decreased
7W WT APP751 CHO cells [2]; 20 μM (FIG. 4)
  concentration of Aβ1-40 compared to controls: significantly decreased
  concentration of total β-amyloid compared to controls: significantly decreased
7W WT APP751 CHO cells [2]; 30 μM (FIG. 4)
  concentration of Aβ1-40 compared to controls: significantly decreased
  concentration of total β-amyloid compared to controls: significantly decreased

## CC(C)(C)c1cc(C=C(C#N)C#N)cc(C(C)(C)C)c1O [tyrphostin A9]
7W WT APP751 CHO cells [2]; 20 μM (FIG. 2)
  concentration of Aβ1-40 compared to controls: significantly decreased
  concentration of Aβ1-42 compared to controls: significantly decreased
  concentration of total β-amyloid compared to controls: significantly decreased
